Source: patent US7846955B2, “Salt” (AstraZeneca AB, priority 2007, dated 2010)
Structures can show the parent of a compound that is named as a salt.

Assays:
[1] = Evaluation of deaggregation properties of micronised material (Fine Particle Fraction); type: physicochemical; settings: across relative humidity 0-75% RH
From the text: ‘Salt Form A’ was Micronised in a 50 mm jet mill, with ejector pressure 5 bar and milling pressure 1.5-2 bar, giving (90% yield). Particle size of the micronised material as determined by Malvern Laser Diffraction with dry powder feeder was d(0.1) 0.77 μm: d(0.5), 1.45μ: d(0.9): 2.65 μm.

[2] = Gravimetric vapour sorption (GVS) water uptake; type: physicochemical; settings: at 80% RH (±0.3%), 25° C.
Protocol: • XRPD—PANalytical CubiX PRO machine in Ø-Ø configuration over the scan range 2° to 40° 2Ø with 100-second exposure per 0.02° increment. The X-rays were generated by a copper long-fine focus tube operated at 45 kV and 40 mA. The wavelength of the copper X-rays was 1.5418 Å. The Data was collected on zero background holders on which ˜2 mg of the compound was placed. The holder was made from a single crystal of silicon, which had been cut along a non-diffracting plane and then polished on an optically flat finish. The X-rays incident upon this surface were negated by Bragg extinction. • DSC thermograms were measured using a TA Q1000 Differential Scanning Calorimeter, with aluminium pans and pierced lids. The sample weights varied between 0.5 to 5 mg. The procedure was carried out under a flow of nitrogen gas (50 ml/min) and the temperature studied from 25 to 300° C. at a constant rate of temperature increase of 10° C. per minute. • TGA thermograms were measured using a TA Q500 Thermogravimetric Analyser, with platinum pans. The sample weights varied between 1 and 5 mg. The procedure was carried out under a flow of nitrogen gas (60 ml/min) and the temperature studied from 25 to 200° C. at a constant rate of temperature increase of 10° C. per minute. • GVS profiles were measured using a Dynamic Vapour Sorption DVS-1 instrument. […]

[3] = biological target: human muscarinic receptors (M3) (Homo sapiens, UniProt P20309); experiment: Muscarinic Receptor Radioligand Binding Assay (SPA, [3H]-NMS); settings: human M3 membranes on SPA beads, 16 hours incubation, read-out: M3 binding pIC50 (converted)
Protocol: The inhibitory effects of compounds of the napadisylate salt were determined by a Muscarinic Receptor Radioligand Binding Assay. Radioligand binding studies were carried out in Scintillation Proximity Assay (SPA) format utilising [3H]-N-methyl scopolamine ([3H]-NMS) and cell membranes expressing the human muscarinic receptors (M2 or M3) which were coated onto SPA beads. Coated SPA beads were incubated in 96-well plates in HEPES buffer with [3H]-NMS and M3 antagonist at various concentrations for 16 hours. Radioligand binding was then counted using a Wallac Microbeta scintillation counter.

human muscarinic receptors (M3), sequence (P20309 whole entry): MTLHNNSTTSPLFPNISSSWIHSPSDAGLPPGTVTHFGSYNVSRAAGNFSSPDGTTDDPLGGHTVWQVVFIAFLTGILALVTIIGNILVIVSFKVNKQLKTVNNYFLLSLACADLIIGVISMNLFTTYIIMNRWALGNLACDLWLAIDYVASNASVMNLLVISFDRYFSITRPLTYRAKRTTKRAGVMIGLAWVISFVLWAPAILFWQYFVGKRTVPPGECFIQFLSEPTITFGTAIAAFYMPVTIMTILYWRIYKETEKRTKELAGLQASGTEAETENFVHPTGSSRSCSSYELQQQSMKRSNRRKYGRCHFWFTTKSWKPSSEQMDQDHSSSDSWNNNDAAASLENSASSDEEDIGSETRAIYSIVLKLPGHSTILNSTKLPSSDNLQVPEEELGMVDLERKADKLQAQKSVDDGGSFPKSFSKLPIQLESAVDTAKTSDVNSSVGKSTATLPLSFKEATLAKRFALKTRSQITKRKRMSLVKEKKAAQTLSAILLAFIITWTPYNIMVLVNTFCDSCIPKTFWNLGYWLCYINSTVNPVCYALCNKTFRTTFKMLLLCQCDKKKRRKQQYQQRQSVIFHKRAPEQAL

C[N+](C)(CCOCc1ccc(Cl)cc1)Cc1cnc([C@](O)(c2ccccc2)C2CCCCC2)o1 [Salt Form A, [2-(4-chloro-benzyloxy)-ethyl]-[2-((R)-cyclohexyl-hydroxy-phenyl-methyl)-oxazol-5-ylmethyl]-dimethyl-ammonium hemi-naphthalene-1,5-disulfonate]
Fine Particle Fraction (FPF) [1]: > 60%
GVS weight increase [2]: less than 0.5 % w/w

C[N+](C)(CCOCc1ccc(Cl)cc1)Cc1cnc([C@](O)(c2ccccc2)C2CCCCC2)o1 [[2-(4-chloro-benzyloxy)-ethyl]-[2-((R)-cyclohexyl-hydroxy-phenyl-methyl)-oxazol-5-ylmethyl]-dimethyl-ammonium]
IC50 [3]: 0.158 nM
